Tests used:
Assay type in all cases: functional
A549 = test: Antiproliferative activity against human A549 cells assessed as growth inhibition incubated for 3 days; conditions: A549, 72 h, time 3 day
LS174T = test: Antiproliferative activity against human LS174T cells assessed as growth inhibition incubated for 3 days; conditions: 72 h, time 3 day
HCT-116 = test: Antiproliferative activity against human HCT-116 cells assessed as growth inhibition incubated for 3 days; conditions: HCT-116, 72 h, time 3 day

| SMILES | GI50 (A549) | GI50 (LS174T) | GI50 (HCT-116) |
| --- | --- | --- | --- |
| COCO[C@@H](C)/C=C\C(=O)N[C@@H]1C[C@H](C)[C@H](C/C=C(C)/C=C/[C@@H](O)[C@H]2OC(C)(C)C[C@@]23CO3)O[C@@H]1C | 8700 nM | 5500 nM | 3400 nM |
| COCO[C@@H](C)/C=C\C(=O)N[C@@H]1C[C@H](C)[C@H](C/C=C(C)/C=C/[C@H]2OC(C)(C)C[C@@]3(CO3)[C@@H]2O)O[C@@H]1C | 3.9 nM | 8.4 nM | 3.1 nM |
| CC(=O)O[C@@H](C)/C=C\C(=O)N[C@@H]1C[C@H](C)[C@H](C/C=C(C)/C=C/[C@H]2OC(C)(C)C[C@@]3(CO3)[C@@H]2O)O[C@@H]1C | 7.4 nM | 5.7 nM | 1.1 nM |
| COc1cccc2c1C(=O)c1c(O)c3c(c(O)c1C2=O)C[C@@](O)(C(=O)CO)C[C@@H]3O[C@H]1C[C@H](N)[C@H](O)[C@H](C)O1 [DOXORUBICIN] | 608 nM | 248 nM | 77 nM |
